Drawing on ChEMBL document CHEMBL1139264 (Bioorg Med Chem Lett, 2009), this text covers Activity and IC50 for four compounds.

The target of assay [1] is Estrogen receptor beta (Homo sapiens) (UniProt Q92731). The assay can be described thus: Binding affinity to human ERbeta receptor relative to estrogen.
In assay [2] the target is T1, Estrogen receptor (Homo sapiens, UniProt P03372).
T1 sequence (P03372 whole entry): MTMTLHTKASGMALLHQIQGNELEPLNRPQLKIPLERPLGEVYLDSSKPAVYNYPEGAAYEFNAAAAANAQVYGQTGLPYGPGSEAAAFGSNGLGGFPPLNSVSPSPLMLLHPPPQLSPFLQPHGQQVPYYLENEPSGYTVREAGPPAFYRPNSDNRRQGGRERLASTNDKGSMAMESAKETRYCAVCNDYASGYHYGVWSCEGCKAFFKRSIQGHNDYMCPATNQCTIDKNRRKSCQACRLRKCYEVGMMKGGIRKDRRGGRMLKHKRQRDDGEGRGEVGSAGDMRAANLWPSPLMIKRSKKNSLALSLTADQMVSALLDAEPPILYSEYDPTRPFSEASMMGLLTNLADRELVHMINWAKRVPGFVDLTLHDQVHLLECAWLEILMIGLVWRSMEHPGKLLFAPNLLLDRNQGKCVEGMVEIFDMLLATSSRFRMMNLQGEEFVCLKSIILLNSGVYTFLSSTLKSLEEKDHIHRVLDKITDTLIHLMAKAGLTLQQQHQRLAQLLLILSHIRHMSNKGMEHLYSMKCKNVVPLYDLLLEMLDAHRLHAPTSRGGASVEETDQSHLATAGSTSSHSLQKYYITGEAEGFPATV
Description: Antagonist activity at human ERalpha receptor expressed in HEC1 cells assessed as transcriptional activation after 24 hrs by luciferase reporter gene assay

pIC50: −log10 of the molar value.

Estrogen receptor beta (Homo sapiens), sequence (Q92731 whole entry): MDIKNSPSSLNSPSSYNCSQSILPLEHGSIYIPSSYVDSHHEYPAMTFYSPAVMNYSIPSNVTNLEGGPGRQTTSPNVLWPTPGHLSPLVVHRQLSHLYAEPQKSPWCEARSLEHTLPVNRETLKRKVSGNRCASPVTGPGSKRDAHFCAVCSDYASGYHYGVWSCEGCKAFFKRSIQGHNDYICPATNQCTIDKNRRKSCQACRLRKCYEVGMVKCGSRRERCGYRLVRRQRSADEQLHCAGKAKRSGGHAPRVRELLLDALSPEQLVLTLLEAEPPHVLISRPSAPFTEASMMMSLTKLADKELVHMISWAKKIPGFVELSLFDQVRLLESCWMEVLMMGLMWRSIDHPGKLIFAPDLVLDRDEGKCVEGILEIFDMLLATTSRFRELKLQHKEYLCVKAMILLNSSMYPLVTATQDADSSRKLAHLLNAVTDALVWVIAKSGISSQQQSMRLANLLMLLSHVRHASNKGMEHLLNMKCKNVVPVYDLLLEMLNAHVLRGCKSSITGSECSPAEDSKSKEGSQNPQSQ

In assay [1], `Cc1c(-c2ccc(O)cc2)nn(-c2ccc(O)cc2)c1-c1ccc(O)cc1` showed an Activity of 0.039%.

What is called pIC50 is the IC50 on a negative log10 scale, so that one unit is a factor of ten. A high value points to a small IC50. Consider `Cc1c(-c2ccc(O)cc2)nn(-c2ccc(O)cc2)c1-c1ccc(/C=C/C(=O)N2CCCCC2)cc1`, for which, in assay [1], the Activity was determined as 0.015%. This compound also had a pIC50 in assay [2] of 6.00.

As for `Cc1c(-c2ccc(O)cc2)nn(-c2ccc(O)cc2)c1-c1ccc(OCCN2CCCCC2)cc1`, in assay [1], the Activity worked out at 0.05%.

In turn, `Cc1c(-c2ccc(O)cc2)nn(-c2ccc(O)cc2)c1-c1ccc(CCCN2CCCCC2)cc1` showed an Activity in assay [1] of 0.016%. In assay [2], this compound had a pIC50 of 7.70.
